One data set deals with FR1 (Homo sapiens, UniProt P15328). The note with it: read-out: affinity; cited from earlier work.
A further data set has as its target FR2 (Homo sapiens, UniProt P14207). The settings on record: read-out: affinity; cited from earlier work.
In a further data set the target is KIFC1 (Homo sapiens, UniProt Q9BW19). The note with it: ATP-competitive, MT-noncompetitive; cited from earlier work.
Data set [1] concerns BT-549 breast cancer cells. The settings on record: cells with amplified centrosomes; cited from earlier work.
Data set [2] is described as follows: Stability in simulated gastric fluid (SGF). The settings on record: 10 μM, SGF pH 1.2, over 1 h. It is filed as in vitro ADME. As for the experimental part: (§1) Samples (100 μl) were drawn at 0, 15, 30 and 60 min from SGF reaction-vials and at 0, 30, 60 and 120 min from SIF reaction-vials, quenched with acetonitrile, vortex-mixed, and centrifuged before supernatant analysis by LC-MS/MS analysis. […] For PK studies, a sparse sampling design with 3 mice per time point was used to collect blood samples at 5, 10, 15, 30 min and 1, 2, 3, 4, 5 and 6 h in K2EDTA-coated tubes. The pharmacokinetic parameters (AUClast, Cmax, CL and Vss) were calculated using non-compartmental analysis tool of Phoenix WinNonlin software (version 6.3).
(§2) Given the extreme pH and various digestive enzymes, the GI tract presents a harsh environment to any ingested xenobiotic. Thus, many potential drug candidates are degraded in the GI tract, explaining their decreased bioavailability or inability to reach the target at effective concentrations. Simulated gastric fluid (SGF; pH 1.2) and simulated intestinal fluid (SIF; pH 6.8) closely mimic the GI tract environment and are amenable in vitro systems to evaluate degradation of a compound in GI tract (US Pharmacopoia).
(§3) Simulated gastric fluid was prepared as per U.S. Pharmacopeia (USP) methods. Sodium chloride (2 g) and pepsin (3.2 g, from porcine stomach mucosa) were dissolved in 7.0 ml hydrochloric acid and Milli-Q water to make up the volume to 1000 ml and the pH was adjusted to 1.2. […]

A short description of data set [3]: Stability in simulated intestinal fluid (SIF). The format is in vitro ADME. The settings on record: 10 μM, SIF pH 6.8, after 2 h. As for the experimental part: as §1, §2, §3
Data set [4] is described as follows: Blood plasma concentration ratio assay. It is filed as in vitro ADME, mice. The settings on record: whole blood; mouse blood, 37° C.; read-out: Blood to plasma ratio (BPR). As for the experimental part: Values and error bars shown in the figure represent mean and SE, respectively.
100 μl and 300 μl aliquots were collected at time points 0, 15, 30 and 60 min. 100 μl water was added to each of the 100 μl aliquots followed by vortexing, centrifugation at 8000 g for 10 min, and collection of the supernatants for bioanalysis. The 300 μL aliquots were centrifuged at 8000 g for 10 min to separate the plasma, followed by collection of the supernatants for bioanalysis.

The nature of data set [5]: Pharmacokinetic studies, single oral and intravenous dose. It is filed as in vivo, BALB/c mice. The settings on record: male, BALB/c, mouse, plasma, analyte PhosE; for Cmax: read-out: Cmax/C0. As for the experimental part:
as §1
Nine animals per group were used for PK studies. A sparse sampling design was used to collect blood samples from animals at 5 min, 10 min, 15 min, 30 min, 1, 2, 3, 4, 5, and 6 h in K2EDTA coated tubes. Plasma was collected from blood by centrifugation of samples at 8000 g for 10 min. Plasma samples were stored below −60° C. until further analysis.
PK parameters were calculated from the concentration-time data using the non-compartmental analysis tool of Phoenix WinNolin® software (version 6.3, Pharsight, St Louis, Mo.). The area under the concentration time curve (AUClast) was calculated by the linear trapezoidal rule. Following oral administration, peak concentration (Cmax) and time for the peak concentration (Tmax) were the observed values. The clearance (CL) and volume of distribution (Vss) were estimated following IV dose administration. The elimination rate constant value (k) was obtained by linear regression of the log-linear terminal phase of the concentration-time profile using at least three declining concentrations in terminal phase with a correlation coefficient of >0.8. The terminal half-life value (T1/2) was calculated using the equation ln 2/k. Oral bioavailability was calculated by taking the ratio of dose normalized AUClast following oral administration to IV administration.

Data set [6] has as its system PC-3 cells. Put plainly: MTT cell proliferation assay. It is filed as cell-based, human. The settings on record: MTT, 48 h, pH 7.4. As for the experimental part: (§4) Next, a clonogenic cell survival assay was performed to assess the reproductive capacity of cells upon drug removal.
(§5) After 48 h, drug containing medium was replaced by medium containing MTT (tetrazolium bromide) at a concentration of 0.5 mg/ml. The yellow tetrazolium salt is reduced to insoluble purple formazan by viable cells. After 4 h of incubation in dark, formazan crystals produced by viable cells were dissolved by 200 μl DMSO and the amount of formazan crystals formed was quantified by recording the absorbance at 570 nm using multi-well plate reader. […] After 10 days, colonies were fixed with 4% formaldehyde, stained with crystal violet and counted.
(Tetrazolium dyes change colour on reduction, which living cells bring about.)

In data set [7] the test system is PC-3 cells. Put plainly: Clonogenic cell survival (colony) assay. It is filed as cell-based, human. The note with it: 2 mg/ml, 48 h treatment, colonies after 10 days. The method, then:
as §4, §5

The subject of data set [8] is PC-3 cells. The data set is described as follows: Intracellular levels of Etn and PhosE by LC-MS/MS. The format is cell-based, human. The note with it: 1 mg/ml, 48 h, pH 7.4.
Another data set has as its target CYP1A2 (Homo sapiens, UniProt P05177). The data set is described as follows: CYP inhibition in human liver microsomes. In general terms: Microsomes from liver hold many membrane-bound enzymes, among them those of drug oxidation.
A further data set has as its target CYP2A6 (Homo sapiens, UniProt P11509). Put plainly: CYP inhibition in human liver microsomes.
The next data set deals with CYP2B6 (Homo sapiens, UniProt P20813). Put plainly: CYP inhibition in human liver microsomes.
The next data set concerns the target CYP2C8 (Homo sapiens, UniProt P10632). Put plainly: CYP inhibition in human liver microsomes.
For the next data set, the target named is CYP2C9 (Homo sapiens, UniProt P11712). Put plainly: CYP inhibition in human liver microsomes.
The target of a further data set is CYP2C19 (Homo sapiens, UniProt P33261). The data set is described as follows: CYP inhibition in human liver microsomes.
Another data set has as its target CYP2D6 (Homo sapiens, UniProt P10635). The data set is described as follows: CYP inhibition in human liver microsomes.
The target in the next data set is CYP2E1 (Homo sapiens, UniProt P05181). The data set is described as follows: CYP inhibition in human liver microsomes.
For a further data set, the target named is CYP3A4 (Homo sapiens, UniProt P08684). The data set is described as follows: CYP inhibition in human liver microsomes.

Like-named read-outs stand apart in the source and are kept apart here.

Sequence of CYP3A4 (P08684 whole entry): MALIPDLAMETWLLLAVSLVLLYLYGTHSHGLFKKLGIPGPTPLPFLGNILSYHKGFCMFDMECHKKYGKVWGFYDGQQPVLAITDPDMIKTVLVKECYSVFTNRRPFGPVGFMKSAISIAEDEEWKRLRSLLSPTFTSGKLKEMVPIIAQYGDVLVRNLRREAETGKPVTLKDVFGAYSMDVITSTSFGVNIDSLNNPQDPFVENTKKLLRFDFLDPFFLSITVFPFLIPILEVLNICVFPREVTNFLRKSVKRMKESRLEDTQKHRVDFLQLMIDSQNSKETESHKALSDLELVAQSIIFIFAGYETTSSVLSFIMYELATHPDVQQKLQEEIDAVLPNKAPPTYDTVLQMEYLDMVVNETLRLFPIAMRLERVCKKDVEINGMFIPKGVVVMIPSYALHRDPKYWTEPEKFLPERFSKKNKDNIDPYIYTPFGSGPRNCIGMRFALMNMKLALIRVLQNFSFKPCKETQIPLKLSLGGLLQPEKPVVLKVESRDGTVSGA
Sequence of FR2 (P14207 17-230): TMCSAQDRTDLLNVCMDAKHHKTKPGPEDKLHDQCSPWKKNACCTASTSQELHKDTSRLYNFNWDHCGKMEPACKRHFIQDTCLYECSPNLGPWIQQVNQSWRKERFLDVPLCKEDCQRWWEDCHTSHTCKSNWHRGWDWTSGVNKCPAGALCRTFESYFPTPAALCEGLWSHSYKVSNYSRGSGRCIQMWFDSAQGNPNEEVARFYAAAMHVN
Sequence of FR1 (P15328 25-234): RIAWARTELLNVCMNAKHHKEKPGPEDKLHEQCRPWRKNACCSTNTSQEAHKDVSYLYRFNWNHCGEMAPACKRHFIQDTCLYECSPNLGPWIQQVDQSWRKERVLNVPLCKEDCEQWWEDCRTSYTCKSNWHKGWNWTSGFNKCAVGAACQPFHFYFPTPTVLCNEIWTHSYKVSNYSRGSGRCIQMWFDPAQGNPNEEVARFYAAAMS
Sequence of CYP2B6 (P20813 whole entry): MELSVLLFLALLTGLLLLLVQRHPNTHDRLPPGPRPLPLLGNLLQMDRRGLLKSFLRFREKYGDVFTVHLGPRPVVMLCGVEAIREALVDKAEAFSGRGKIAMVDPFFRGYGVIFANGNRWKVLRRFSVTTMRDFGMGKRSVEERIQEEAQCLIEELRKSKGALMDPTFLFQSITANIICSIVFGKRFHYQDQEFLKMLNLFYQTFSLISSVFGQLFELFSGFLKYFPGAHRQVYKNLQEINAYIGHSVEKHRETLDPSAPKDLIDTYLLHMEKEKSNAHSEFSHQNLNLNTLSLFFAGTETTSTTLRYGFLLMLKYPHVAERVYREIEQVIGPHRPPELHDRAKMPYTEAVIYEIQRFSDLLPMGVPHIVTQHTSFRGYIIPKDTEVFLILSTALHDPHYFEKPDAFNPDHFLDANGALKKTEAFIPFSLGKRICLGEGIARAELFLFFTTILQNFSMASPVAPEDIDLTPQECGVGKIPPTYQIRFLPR
Sequence of CYP2E1 (P05181 whole entry): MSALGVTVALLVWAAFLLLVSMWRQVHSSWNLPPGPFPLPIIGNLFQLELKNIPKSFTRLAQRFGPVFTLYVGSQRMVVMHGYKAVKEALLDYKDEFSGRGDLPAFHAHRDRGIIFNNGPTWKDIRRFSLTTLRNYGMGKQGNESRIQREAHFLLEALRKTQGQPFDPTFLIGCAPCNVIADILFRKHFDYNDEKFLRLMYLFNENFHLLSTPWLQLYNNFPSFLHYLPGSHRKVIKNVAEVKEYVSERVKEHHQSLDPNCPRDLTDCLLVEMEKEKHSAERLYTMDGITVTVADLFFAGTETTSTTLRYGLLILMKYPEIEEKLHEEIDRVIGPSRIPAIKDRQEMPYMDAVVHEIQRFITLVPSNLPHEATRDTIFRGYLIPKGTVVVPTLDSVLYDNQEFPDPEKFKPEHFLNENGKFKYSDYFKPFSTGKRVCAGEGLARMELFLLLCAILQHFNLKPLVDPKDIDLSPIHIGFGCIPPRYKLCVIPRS
Sequence of CYP2C19 (P33261 whole entry): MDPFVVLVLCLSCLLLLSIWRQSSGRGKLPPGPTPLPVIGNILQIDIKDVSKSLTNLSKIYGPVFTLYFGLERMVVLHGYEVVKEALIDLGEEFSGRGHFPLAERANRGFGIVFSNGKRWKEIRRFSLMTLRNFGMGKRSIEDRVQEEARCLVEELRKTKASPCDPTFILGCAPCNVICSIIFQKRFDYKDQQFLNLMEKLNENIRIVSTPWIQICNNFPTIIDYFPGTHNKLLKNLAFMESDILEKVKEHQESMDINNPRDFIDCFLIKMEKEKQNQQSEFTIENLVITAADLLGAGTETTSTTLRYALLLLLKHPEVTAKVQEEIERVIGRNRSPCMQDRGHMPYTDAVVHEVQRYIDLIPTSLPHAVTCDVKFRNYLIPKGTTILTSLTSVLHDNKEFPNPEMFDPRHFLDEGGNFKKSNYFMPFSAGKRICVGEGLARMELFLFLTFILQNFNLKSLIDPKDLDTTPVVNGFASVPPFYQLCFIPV
Sequence of CYP2A6 (P11509 whole entry): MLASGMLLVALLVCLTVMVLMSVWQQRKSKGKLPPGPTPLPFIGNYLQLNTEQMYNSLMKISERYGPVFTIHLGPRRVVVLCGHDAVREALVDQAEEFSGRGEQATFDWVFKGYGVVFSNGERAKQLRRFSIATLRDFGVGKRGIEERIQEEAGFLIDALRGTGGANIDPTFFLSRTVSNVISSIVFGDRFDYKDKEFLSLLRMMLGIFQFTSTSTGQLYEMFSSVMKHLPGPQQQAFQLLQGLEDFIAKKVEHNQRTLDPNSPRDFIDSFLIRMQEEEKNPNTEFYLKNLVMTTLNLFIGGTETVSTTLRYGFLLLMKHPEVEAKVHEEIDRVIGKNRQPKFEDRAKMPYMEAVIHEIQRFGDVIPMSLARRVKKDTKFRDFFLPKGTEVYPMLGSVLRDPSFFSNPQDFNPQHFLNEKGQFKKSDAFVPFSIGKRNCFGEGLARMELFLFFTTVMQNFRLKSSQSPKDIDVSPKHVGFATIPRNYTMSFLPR
Sequence of KIFC1 (Q9BW19 whole entry, species assumed): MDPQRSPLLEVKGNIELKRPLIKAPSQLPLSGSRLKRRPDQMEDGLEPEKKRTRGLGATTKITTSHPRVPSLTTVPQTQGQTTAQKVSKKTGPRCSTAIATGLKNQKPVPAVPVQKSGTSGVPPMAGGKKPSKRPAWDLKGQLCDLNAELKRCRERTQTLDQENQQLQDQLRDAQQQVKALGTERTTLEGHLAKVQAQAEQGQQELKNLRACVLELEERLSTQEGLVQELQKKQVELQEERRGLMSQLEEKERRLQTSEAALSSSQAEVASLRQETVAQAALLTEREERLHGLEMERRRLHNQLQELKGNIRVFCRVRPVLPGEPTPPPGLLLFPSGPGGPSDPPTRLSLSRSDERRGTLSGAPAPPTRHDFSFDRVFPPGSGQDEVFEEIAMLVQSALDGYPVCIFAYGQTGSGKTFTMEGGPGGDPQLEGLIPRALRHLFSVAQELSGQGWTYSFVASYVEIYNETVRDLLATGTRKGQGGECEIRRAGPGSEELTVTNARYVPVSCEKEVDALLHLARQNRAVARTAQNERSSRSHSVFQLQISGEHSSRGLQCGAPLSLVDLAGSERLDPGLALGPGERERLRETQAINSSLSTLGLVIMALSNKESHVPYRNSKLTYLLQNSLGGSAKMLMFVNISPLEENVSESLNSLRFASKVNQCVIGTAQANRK
Sequence of KIFC1 (P68363 whole entry partner, species assumed): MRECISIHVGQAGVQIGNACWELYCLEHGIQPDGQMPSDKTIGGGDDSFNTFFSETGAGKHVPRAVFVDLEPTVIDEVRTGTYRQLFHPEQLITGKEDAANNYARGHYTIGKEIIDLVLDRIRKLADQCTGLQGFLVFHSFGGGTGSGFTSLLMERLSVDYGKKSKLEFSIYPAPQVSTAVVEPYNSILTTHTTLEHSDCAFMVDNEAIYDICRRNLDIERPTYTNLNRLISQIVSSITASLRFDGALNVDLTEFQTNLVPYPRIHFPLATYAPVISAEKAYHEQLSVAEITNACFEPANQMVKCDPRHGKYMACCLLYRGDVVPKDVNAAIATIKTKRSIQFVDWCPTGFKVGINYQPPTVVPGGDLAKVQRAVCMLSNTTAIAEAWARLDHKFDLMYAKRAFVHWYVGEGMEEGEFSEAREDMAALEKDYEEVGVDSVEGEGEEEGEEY
Sequence of KIFC1 (Q9BVA1 whole entry partner, species assumed): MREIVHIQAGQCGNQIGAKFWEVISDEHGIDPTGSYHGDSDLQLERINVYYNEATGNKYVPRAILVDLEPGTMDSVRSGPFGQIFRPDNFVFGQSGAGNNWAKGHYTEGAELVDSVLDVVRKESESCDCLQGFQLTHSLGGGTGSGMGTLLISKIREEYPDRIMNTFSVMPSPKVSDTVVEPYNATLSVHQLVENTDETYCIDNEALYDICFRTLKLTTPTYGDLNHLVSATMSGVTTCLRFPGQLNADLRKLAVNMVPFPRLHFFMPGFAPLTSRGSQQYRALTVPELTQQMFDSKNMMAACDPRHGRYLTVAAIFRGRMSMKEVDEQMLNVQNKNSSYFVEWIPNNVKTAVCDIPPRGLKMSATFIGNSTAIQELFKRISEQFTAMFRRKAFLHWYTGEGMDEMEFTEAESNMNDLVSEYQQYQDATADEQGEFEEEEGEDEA
Sequence of CYP2C9 (P11712 whole entry): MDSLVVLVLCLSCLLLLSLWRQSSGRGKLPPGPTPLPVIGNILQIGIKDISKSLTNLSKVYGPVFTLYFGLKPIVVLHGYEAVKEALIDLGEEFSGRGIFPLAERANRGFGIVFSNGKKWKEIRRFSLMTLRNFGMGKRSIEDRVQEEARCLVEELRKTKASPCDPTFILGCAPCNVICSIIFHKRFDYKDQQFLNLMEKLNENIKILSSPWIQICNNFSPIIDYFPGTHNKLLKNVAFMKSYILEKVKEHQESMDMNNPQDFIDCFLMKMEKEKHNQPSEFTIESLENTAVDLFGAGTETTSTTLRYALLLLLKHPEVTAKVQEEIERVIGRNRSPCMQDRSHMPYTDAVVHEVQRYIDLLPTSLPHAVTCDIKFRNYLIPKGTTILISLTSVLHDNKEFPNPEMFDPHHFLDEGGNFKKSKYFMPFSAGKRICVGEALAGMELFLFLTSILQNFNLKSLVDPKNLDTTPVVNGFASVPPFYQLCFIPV

For `CN1c2c(nc(N)[nH]c2=O)NC[C@@H]1CNc1ccc(C(=O)N[C@@H](CCC(=O)O)C(=O)O)cc1` [6S 5-methyltetrahydrofolate], the Kd was 0.055 µM on FR1 and 0.001 µM at FR2.
As for `CCCc1cc(C(=O)N[C@H](Cc2ccc(-c3cccc(OC(F)(F)F)c3)nc2)C(=O)N[C@@H]2CCNC2)sc1C` [AZ82], the Ki at KIFC1 was 0.043 µM. For the same compound, the centrosome declustering entry in data set [1] is given as “causes centrosome declustering”.
Regarding `NCCOP(=O)(O)O` [PhosE, phosphoethanolamine], in [2], the “stability in SGF” value is on record as “stable”. In [3], the “decrease in concentration in SIF” value was around 35%. The blood plasma ratio at 50 μM in data set [4] is below 1.5. In data set [5] (iv, 3 mg/kg, PhosE 3 mg/kg iv), this compound registered a half-life below 1 h. The AUC(0-t) in [5] (PhosE 3 mg/kg iv) amounted to 0.49 µg·h/mL; in data set [5] (PhosE 60 mg/kg po) it was 1.89 µg·h/mL. The same compound showed an MRT last in data set [5] (PhosE 3 mg/kg iv) of 0.79 h. In addition, the clearance in data set [5] (PhosE 3 mg/kg iv) was 6.12 L/h/kg. Besides, the Cmax in [5] (PhosE 3 mg/kg iv) amounted to 1.25 µg/mL; in data set [5] (PhosE 60 mg/kg po) it was 1.14 µg/mL. In addition, in data set [5] (PhosE 3 mg/kg iv, read-out: Vss), the Vd amounted to 4.82 L/kg. Also, in [5] (PhosE 60 mg/kg po vs 3 mg/kg iv, read-out: F (oral bioavailability)), the bioavailability was determined as 19%. In addition, the Tmax in [5] (PhosE 60 mg/kg po) amounted to 1 h. The “inhibition of PC-3 cell proliferation” value in the data set on PC-3 cells [6] was “only showed limited inhibition of PC-3 cell proliferation up to 0.5 mg/ml”. Moreover, in the data set on PC-3 cells [7], the “decrease in colony numbers compared to control cells” value is on record as “ineffective in decreasing colony numbers”. For the same compound, the “increase in intracellular PhosE levels compared to control cells” value in the data set with PC-3 cells [8] was around 15 fold. Also, the IC50 against CYP1A2, against CYP2A6, against CYP2B6, against CYP2C8, against CYP2C9 and against CYP2C19 was above 100 µM in each case. For the same compound, the IC50 on CYP2D6 is above 100 µM; on CYP2E1, above 100 µM; at CYP3A4, above 100 µM; against CYP3A4 (3A4-mida: CYP3A4 substrate midazolam, human liver microsomes), above 100 µM; against CYP3A4 (3A4-testo: CYP3A4 substrate testosterone, human liver microsomes) it was above 100 µM.
In the case of `Nc1nc2c(c(=O)[nH]1)N(C=O)C(CNc1ccc(C(=O)N[C@@H](CCC(=O)O)C(=O)O)cc1)CN2` (stereo partly drawn) [leucovorin, 6S 5-formyltetrahydrofolate], the Kd is 0.8 µM on FR1 and 0.007 µM at FR2.

In general, Ki refers to a measure of affinity in units of concentration, obtained from inhibition or displacement. For orientation: half-life means the time in which the quantity being followed falls by half. The term AUC(0-t) denotes exposure summed from dosing to a finite time, without extrapolation to infinity. Broadly, the MRT last is the average time that molecules of a dose stay in the body. For orientation: bioavailability means the share of a dose that reaches the circulation, judged against a reference dose that is usually intravenous. Broadly, the Tmax is the time at which the peak concentration occurs. A word on the IC50: it is the concentration needed to halve the response being measured.

The record behind these values is patent US11607421B2, “Ethanolamine-based lipid biosynthetic compounds, method of making and use thereof” (Metanoi Therapeutics, Inc., priority 2016, dated 2023).
